{
  "source": "patent US7250410B2",
  "about": "“Cyclic nucleotide phosphodiesterase inhibitors, preparation and uses thereof” (Via Pharmaceuticals, Inc., priority 2001, dated 2007)",
  "note": "Several values for one entry are separate records, joined by “and”; a condition that tells them apart may be missing. Equal entries are not always repeated.",
  "data": [
    {"target": "PDE4", "test": "Inhibition of PDE4, radioenzymatic phosphodiesterase assay", "type": "biochemical, bovine", "conditions": "Table 1, formula (III); 1 μM cyclic AMP", "method": "(§1) A 3 g segment of bovine aortic media cut into pieces with scissors was homogenized with an ultra-turrax then a potter glass/glass homogenizer in 7 volumes by weight of buffer A containing a protease inhibitor cocktail (20 mM Tris-HCl, 0.25 M saccharose, 2 mM magnesium acetate, 1 mM dithiothreitol, 5 mM EGTA, 2000 U/ml aprotinin, 10 mg/l leupeptin and 10 mg/l soya trypsic inhibitor). The homogenizate was centrifuged at 105,000 g for 1 hour. […] The column was washed until there was no detectable absorption at 280 nm, then eluted with a linear gradient of NaCl (0–0.5 M) in buffer B. 3-ml fractions were collected and enzyme activity was determined under the conditions described hereinafter to localize the different enzymes PDE1, PDE3, PDE4 and PDE5, which were aliquoted and frozen at −80° C.\n(§2) The nucleoside formed was separated from the nucleotides by anion exchange chromatography. Nucleoside radioactivity was determined by liquid scintillation counting.", "units": {"IC50": "µM"}, "values": [
      {"compound": "CCCCCC#Cc1ccc(C2=NN(C)C(=O)Cc3cc(OC)c(OC)cc32)cc1", "note": "[IIIax, 1-[4-(heptyn-1-yl)phenyl]-7,8-dimethoxy-3-methyl-3,5-dihydro-4H-2,3-benzodiazepin-4-one]", "IC50": 7.8},
      {"compound": "COc1cccc(-c2ccc(C3=NN(C)C(=O)Cc4cc(OC)c(OC)cc43)cc2)c1", "note": "[IIIaj, 7,8-dimethoxy-1-[4-(3-methoxyphenyl)phenyl]-3-methyl-3,5-dihydro-4H-2,3-benzodiazepin-4-one]", "IC50": 2.7},
      {"compound": "COc1cc2c(cc1OC)C(c1ccc(-c3ccc(C(C)=O)cc3)cc1)=NN(C)C(=O)C2", "note": "[IIIal, 1-[4-(4-acetylphenyl)phenyl]-7,8-dimethoxy-3-methyl-3,5-dihydro-4H-2,3-benzodiazepin-4-one]", "IC50": 2.4},
      {"compound": "COc1cc2c(cc1OC)C(c1cccc3ccccc13)=NN(C)C(=O)C2", "note": "[IIIaa, 7,8-dimethoxy-3-methyl-1-(1-naphthyl)-3,5-dihydro-4H-2,3-benzodiazepin-4-one]", "IC50": 9.3},
      {"compound": "COc1cc2c(cc1OC)C(c1ccc(-c3cccc(C)c3)cc1)=NN(C)C(=O)C2", "note": "[IIIar, 7,8-dimethoxy-3-methyl-1-[4-(3-methylphenyl)phenyl]-3,5-dihydro-4H-2,3-benzodiazepin-4-one]", "IC50": 2.9},
      {"compound": "COc1cc2c(cc1OC)C(c1ccc(-c3cccc(C(F)(F)F)c3)cc1)=NN(C)C(=O)C2", "note": "[IIIap, 1-[4-[3-(trifluoromethyl)phenyl]phenyl]-7,8-dimethoxy-3-methyl-3,5-dihydro-4H-2,3-benzodiazepin-4-one]", "IC50": 1.9}
    ]},
    {"tested_on": "PDE4", "test": "Inhibition of PDE4, radioenzymatic phosphodiesterase assay", "type": "biochemical, bovine", "conditions": "Table 1, formula (III); compound at 10 μM", "method": "as §1, §2", "units": {"PDE4 percentage inhibition at 10 μM": "%"}, "values": [
      {"compound": "COc1cc2c(cc1OC)C(c1ccccc1)=NN(Cc1ccccc1)C(=O)C2", "note": "[IIIac, 3-benzyl-7,8-dimethoxy-1-phenyl-3,5-dihydro-4H-2,3-benzodiazepin-4-one]", "PDE4 percentage inhibition at 10 μM": 33}
    ]},
    {"tested_on": "PDE4", "test": "Inhibition of PDE4, radioenzymatic phosphodiesterase assay", "type": "biochemical, bovine", "conditions": "Table 2, formula (XXII); compound at 10 μM", "method": "as §1, §2", "units": {"PDE4 percentage inhibition at 10 μM": "%"}, "values": [
      {"compound": "O=C1CN=C(c2cccc(C(F)(F)F)c2)c2cc(I)ccc2N1", "note": "[XXIIac, 7-iodo-5-[3-(trifluoromethyl)phenyl]-1,3-dihydro-2H-1,4-benzodiazepin-2-one]", "PDE4 percentage inhibition at 10 μM": 35},
      {"compound": "O=C1CN=C(c2ccccc2)c2cc3c(cc2N1)OCCO3", "note": "[XXIIah, 10-phenyl-2,3,6,8-tetrahydro-7H-[1,4]dioxino[2,3-h][1,4]benzodiazepin-7-one]", "PDE4 percentage inhibition at 10 μM": 21.2},
      {"compound": "COc1cc2c(cc1OC)C(c1ccccc1)=NC(Cc1ccccc1)C(=O)N2", "note": "(centres unmarked) [XXIIap, 3-benzyl-7,8-dimethoxy-5-phenyl-1,3-dihydro-2H-1,4-benzodiazepin-2-one]", "PDE4 percentage inhibition at 10 μM": 36.10},
      {"compound": "CCCCN(Cc1ccccc1)C(=O)OC1N=C(c2ccccc2)c2cc(OC)c(OC)cc2NC1=O", "note": "[XXIIav, (7,8-dimethoxy-5-phenyl-2-oxo-2,3-dihydro-1H-1,4-benzodiazepin-3-yl)benzyl(S)-butylcarbamate]", "PDE4 percentage inhibition at 10 μM": 23},
      {"compound": "COc1cc2c(cc1OC)C(c1ccccc1)=N[C@@H](CCCCN)C(=O)N2", "note": "[XXIIaw, (S)-3-(4-aminobutyl)-7,8-dimethoxy-5-phenyl-1,3-dihydro-2H-1,4-benzodiazepin-2-one]", "PDE4 percentage inhibition at 10 μM": 4},
      {"compound": "CCOc1cc2c(cc1OC)NC(=O)CN=C2c1ccccc1", "note": "[XXIIbc, 5-phenyl-7-ethoxy-8-methoxy-1,3-dihydro-2H-1,4-benzodiazepin-2-one]", "PDE4 percentage inhibition at 10 μM": 10},
      {"compound": "COc1cc2c(cc1OC)C(c1ccccc1)=NC(CC(C)C)C(=O)N2", "note": "(centres unmarked) [XXIIad, 7,8-dimethoxy-3-isobutyl-5-phenyl-1,3-dihydro-2H-1,4-benzodiazepin-2-one]", "PDE4 percentage inhibition at 10 μM": 14.9}
    ]},
    {"target": "PDE4", "test": "Inhibition of PDE4, radioenzymatic phosphodiesterase assay", "type": "biochemical, bovine", "conditions": "Table 3, formula (II); 1 μM cyclic AMP", "method": "as §1, §2", "values": [
      {"compound": "COc1cc2c(cc1OC)N(C)C(=O)CN=C2c1cccc(Br)c1", "note": "[IIax, 5-(3-bromophenyl)-7,8-dimethoxy-1-methyl-1,3-dihydro-2H-1,4-benzodiazepin-2-one]", "IC50": "8.2 µM"},
      {"compound": "CCN1C(=O)C(Cc2ccccc2OC)N=C(c2ccccc2)c2cc(OC)c(OC)cc21", "note": "(centres unmarked) [IIcr, 1-ethyl-7,8-dimethoxy-3-(2-methoxybenzyl)-5-phenyl-1,3-dihydro-2H-1,4-benzodiazepin-2-one]", "IC50": "2.7 µM"},
      {"compound": "COc1cc2c(cc1OC)N(C)C(=O)CN=C2c1ccc2[nH]ccc2c1", "note": "[IIan, 5-(5-indolyl)-7,8-dimethoxy-1-methyl-1,3-dihydro-1,4-benzodiazepin-2-one]", "IC50": "3.6 µM"},
      {"compound": "CCOc1cc2c(cc1OC)C(c1ccccc1)=NC(c1ccccc1)C(=O)N2CC", "note": "(centres unmarked) [IIdk, 3,5-diphenyl-8-ethoxy-1-ethyl-7-methoxy-1,3-dihydro-2H-1,4-benzodiazepin-2-one]", "IC50": "1.1 µM"},
      {"compound": "CCOc1cc2c(cc1OCC)N(Cc1ccccc1)C(=O)CN=C2c1ccccc1", "note": "[IIbj, 1-benzyl-7,8-diethoxy-5-phenyl-1,3-dihydro-2H-1,4-benzodiazepin-2-one]", "IC50": "6.5 µM"},
      {"compound": "COc1cc2c(cc1OC)N(C)C(=O)CN=C2c1cc2ccccc2[nH]1", "note": "[IIaq, 5-(2-indolyl)-7,8-dimethoxy-1-methyl-1,3-dihydro-1,4-benzodiazepin-2-one]", "IC50": "7.9 µM"},
      {"compound": "CCN1C(=O)CN=C(c2ccc(CCc3ccccc3)cc2)c2cc(OC)c(OC)cc21", "note": "[IIbu, 1-ethyl-7,8-dimethoxy-5-[4-(2-phenylethyl)phenyl]-1,3-dihydro-2H-1,4-benzodiazepin-2-one]", "IC50": "12.4 µM and 18.7 µM"},
      {"compound": "CCN1C(=O)C(Cc2cccc(C#N)c2)N=C(c2ccccc2)c2cc(OC)c(OC)cc21", "note": "(centres unmarked) [IIcp, 3-[(1-ethyl-7,8-dimethoxy-2-oxo-5-phenyl-2,3-dihydro-1H-1,4-benzodiazepin-3-yl)methyl]benzonitrile]", "IC50": "9.2 µM"},
      {"compound": "CCOc1cc2c(cc1OCC)N(CC)C(=O)C(Cc1ccccc1)N=C2c1ccccc1", "note": "(centres unmarked) [IIcv, 3-benzyl-7,8-diethoxy-1-ethyl-5-phenyl-1,3-dihydro-2H-1,4-benzodiazepin-2-one]", "IC50": "3.1 µM"},
      {"compound": "CCN1C(=O)C(C(O)(c2ccccc2)c2ccccc2)N=C(c2ccccc2)c2cc(OC)c(OC)cc21", "note": "(centres unmarked) [IIby, 7,8-dimethoxy-3-(diphenylhydroxymethyl)-1-ethyl-5-phenyl-1,3-dihydro-2H-1,4-benzodiazepin-2-one]", "IC50": "8.2 µM"},
      {"compound": "CCN1C(=O)CN=C(c2ccc(-c3ccccc3)cc2)c2cc(OC)c(OC)cc21", "note": "[IIbp, 5-(1,1′-biphenyl-4-yl)-1-ethyl-7,8-dimethoxy-1,3-dihydro-2H-1,4-benzodiazepin-2-one]", "IC50": "5.74 µM"},
      {"compound": "COc1cc2c(cc1OC)N(C)C(=O)CN=C2c1cc2ccccc2s1", "note": "[IIac, 5-(2-benzo[b]thienyl)-7,8-dimethoxy-1-methyl-1,3-dihydro-1,4-benzodiazepin-2-one]", "IC50": "2.3 µM"}
    ]},
    {"tested_on": "PDE4", "test": "Inhibition of PDE4, radioenzymatic phosphodiesterase assay", "type": "biochemical, bovine", "conditions": "Table 3, formula (II); compound at 10 μM", "method": "as §1, §2", "units": {"PDE4 percentage inhibition at 10 μM": "%"}, "values": [
      {"compound": "COc1cc2c(cc1OC)N(C)C(=O)CN=C2N1CCc2ccccc2C1", "note": "[IIav, 7,8-dimethoxy-1-methyl-5-(N-tetrahydro-1,2,3,4-isoquinolyl)-1,3-dihydro-2H-1,4-benzodiazepin-2-one]", "PDE4 percentage inhibition at 10 μM": 15},
      {"compound": "COc1cc2c(cc1OC)N(C)C(=O)CN=C2c1cc(C(F)(F)F)cc(C(F)(F)F)c1", "note": "[IIaf, 7,8-dimethoxy-1-methyl-5-(3, 5 bistrifluoromethylphenyl)-1,3-dihydro-2H-1,4-benzodiazepin-2-one]", "PDE4 percentage inhibition at 10 μM": 11.7},
      {"compound": "COc1cc2c(cc1OC)N(C)C(=O)[C@H](Cc1ccccc1)N=C2c1ccccc1", "note": "[IIdj, (S)-3-benzyl-7,8-dimethoxy-1-methyl-5-phenyl-1,3-dihydro-2H-1,4-benzodiazepin-2-one]", "PDE4 percentage inhibition at 10 μM": 48.3},
      {"compound": "CCN1C(=O)C(Cc2ccc(C)cc2)N=C(c2ccccc2)c2cc(OC)c(OC)cc21", "note": "(centres unmarked) [IIdd, 1-ethyl-7,8-dimethoxy-3-(4-methylbenzyl)-5-phenyl-1,3-dihydro-2H-1,4-benzodiazepin-2-one]", "PDE4 percentage inhibition at 10 μM": 31.5},
      {"compound": "COc1ccc(C2=NCC(=O)N(C)c3cc(OC)c(OC)cc32)cc1OC", "note": "[IIab, 7,8-dimethoxy-5-(3,4-dimethoxyphenyl)-1-methyl-1,3-dihydro-1,4-benzodiazepin-2-one]", "PDE4 percentage inhibition at 10 μM": 38},
      {"compound": "CCN1C(=O)C(C2(O)CCN(Cc3ccccc3)CC2)N=C(c2ccccc2)c2cc(OC)c(OC)cc21", "note": "(centres unmarked) [IIcl, 3-(1-benzyl-4-hydroxypiperidin-4-yl)-1-ethyl-7,8-dimethoxy-5-phenyl-1,3-dihydro-2H-1,4-benzodiazepin-2-one]", "PDE4 percentage inhibition at 10 μM": 4.3},
      {"compound": "CCOC(=O)CC1N=C(c2ccccc2)c2cc(OC)c(OC)cc2N(CC)C1=O", "note": "(centres unmarked) [IIbv, ethyl (1-ethyl-7,8-dimethoxy-2-oxo-5-phenyl-2,3-dihydro-1H-1,4-benzodiazepin-3-yl)acetate]", "PDE4 percentage inhibition at 10 μM": 44.4},
      {"compound": "C=CCC1N=C(c2ccccc2)c2cc(OC)c(OC)cc2N(CC)C1=O", "note": "(centres unmarked) [IIbs, 3-allyl-1-ethyl-7,8-dimethoxy-5-phenyl-1,3-dihydro-2H-1,4-benzodiazepin-2-one]", "PDE4 percentage inhibition at 10 μM": 38.8},
      {"compound": "CCN1C(=O)CN=C(c2cccc(C#Cc3ccccc3)c2)c2cc(OC)c(OC)cc21", "note": "[IIbw, 1-ethyl-7,8-dimethoxy-5-[3-(phenylethynyl)phenyl]-1,3-dihydro-2H-1,4-benzodiazepin-2-one]", "PDE4 percentage inhibition at 10 μM": 46.1},
      {"compound": "COc1cc2c(cc1OC)N(C)C(=O)CN=C2c1ccccc1C", "note": "[IIau, 7,8-dimethoxy-1-methyl-5-(2-methylphenyl)-1,3-dihydro-1,4-benzodiazepin-2-one]", "PDE4 percentage inhibition at 10 μM": 18.5},
      {"compound": "CCOC(=O)CN1C(=O)CN=C(c2ccccc2)c2cc(OCC)c(OCC)cc21", "note": "[IIbi, ethyl (7,8-diethoxy-2-oxo-5-phenyl-2,3-dihydro-1H-1,4-benzodiazepin-1-yl)acetate]", "PDE4 percentage inhibition at 10 μM": 23.1},
      {"compound": "COc1cc2c(cc1OC)N(C)C(=O)CN=C2C#Cc1ccccc1", "note": "[IIat, 7,8-dimethoxy-1-methyl-5-(2-phenylethynyl)-1,3-dihydro-2H-1,4-benzodiazepin-2-one]", "PDE4 percentage inhibition at 10 μM": 3.9}
    ]}
  ]
}
